Measurements: the supplement of paper PMC10307832

Tests used:
Assay in all cases: relative viability (nuclei count vs DMSO), 5 days (fraction); higher = more cells survive
[1] = system: 201T
Summary of the method: (§1)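 Lung cancer cell lines, seeded in 1536-well plates, were treated the following day by pin tool with a single drug or with five library-drug doses (not always all listed) in √10 steps on top of a fixed anchor-drug dose. Cells were fixed and nuclei stained in one step after 5 days, and nuclei were counted. Relative viability is the nuclei count for treated wells divided by that for vehicle wells, reported as medians of duplicate plates.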

[2] = system: A-427
Summary of the method: as §1

[3] = system: COR-L23
Summary of the method: as §1

[4] = system: H3255
Summary of the method: as §1

[5] = system: HCC-44
Summary of the method: as §1

[6] = system: LCLC-103H
Summary of the method: as §1

[7] = system: LCLC-97TM1
Summary of the method: as §1

[8] = system: LK-2
Summary of the method: as §1

[9] = system: LU99A
Summary of the method: as §1

[10] = system: NCI-H1563
Summary of the method: as §1

[11] = system: NCI-H1650
Summary of the method: as §1

[12] = system: NCI-H1944
Summary of the method: as §1

[13] = system: NCI-H2347
Summary of the method: as §1

[14] = system: NCI-H23
Summary of the method: as §1

[15] = system: NCI-H460
Summary of the method: as §1

[16] = system: NCI-H650
Summary of the method: as §1

[17] = system: NCI-H727
Summary of the method: as §1

[18] = system: NCI-H838
Summary of the method: as §1

[19] = system: PC-14
Summary of the method: as §1

[20] = system: PC-3 [JPC-3]
Summary of the method: as §1

[21] = system: SW 1573
Summary of the method: as §1

SMILES: Oc1nc(-c2ccc(C(F)(F)F)cc2)nc2c1CSCC2 [XAV939] + C[C@@H](Oc1cc(-c2cnn(C3CCNCC3)c2)cnc1N)c1c(Cl)ccc(F)c1Cl [Crizotinib] (partner 1 µM)
- relative viability ([1]; first compound 0.08 µM): 0.995
- relative viability ([1]; first compound 0.253 µM): 1.03
- relative viability ([1]; first compound 0.8 µM): 0.94
- relative viability ([1]; first compound 2.53 µM): 0.866
- relative viability ([2]; first compound 0.08 µM): 0.918
- relative viability ([2]; first compound 0.253 µM): 0.909
- relative viability ([2]; first compound 0.8 µM): 0.794
- relative viability ([2]; first compound 2.53 µM): 0.729
- relative viability ([3]; first compound 0.08 µM): 0.77
- relative viability ([3]; first compound 0.253 µM): 0.675
- relative viability ([3]; first compound 0.8 µM): 0.671
- relative viability ([3]; first compound 2.53 µM): 0.555
- relative viability ([4]; first compound 0.08 µM): 0.942
- relative viability ([4]; first compound 0.253 µM): 0.873
- relative viability ([4]; first compound 0.8 µM): 0.725
- relative viability ([4]; first compound 2.53 µM): 0.7
- relative viability ([5]; first compound 0.08 µM): 0.785
- relative viability ([5]; first compound 0.253 µM): 0.796
- relative viability ([5]; first compound 0.8 µM): 0.79
- relative viability ([5]; first compound 2.53 µM): 0.75
- relative viability ([6]; first compound 0.08 µM): 1.07
- relative viability ([6]; first compound 0.253 µM): 0.917
- relative viability ([6]; first compound 0.8 µM): 0.984
- relative viability ([6]; first compound 2.53 µM): 0.968
- relative viability ([7]; first compound 0.08 µM): 0.488
- relative viability ([7]; first compound 0.253 µM): 0.344
- relative viability ([7]; first compound 0.8 µM): 0.361
- relative viability ([7]; first compound 2.53 µM): 0.305
- relative viability ([8]; first compound 0.08 µM): 0.178
- relative viability ([8]; first compound 0.253 µM): 0.224
- relative viability ([8]; first compound 0.8 µM): 0.181
- relative viability ([8]; first compound 2.53 µM): 0.207
- relative viability ([9]; first compound 0.08 µM): 0.539
- relative viability ([9]; first compound 0.253 µM): 0.55
- relative viability ([9]; first compound 0.8 µM): 0.567
- relative viability ([9]; first compound 2.53 µM): 0.504
- relative viability ([10]; first compound 0.08 µM): 0.834
- relative viability ([10]; first compound 0.253 µM): 0.846
- relative viability ([10]; first compound 0.8 µM): 0.789
- relative viability ([10]; first compound 2.53 µM): 0.697
- relative viability ([11]; first compound 0.08 µM): 1.1
- relative viability ([11]; first compound 0.253 µM): 0.699
- relative viability ([11]; first compound 0.8 µM): 0.948
- relative viability ([11]; first compound 2.53 µM): 0.729
- relative viability ([12]; first compound 0.08 µM): 1.32
- relative viability ([12]; first compound 0.253 µM): 1.08
- relative viability ([12]; first compound 0.8 µM): 1.03
- relative viability ([12]; first compound 2.53 µM): 0.959
- relative viability ([13]; first compound 0.08 µM): 0.692
- relative viability ([13]; first compound 0.253 µM): 0.648
- relative viability ([13]; first compound 0.8 µM): 0.75
- relative viability ([13]; first compound 2.53 µM): 0.515
- relative viability ([14]; first compound 0.08 µM): 0.502
- relative viability ([14]; first compound 0.253 µM): 0.425
- relative viability ([14]; first compound 0.8 µM): 0.436
- relative viability ([14]; first compound 2.53 µM): 0.426
- relative viability ([15]; first compound 0.08 µM): 1.44
- relative viability ([15]; first compound 0.253 µM): 0.879
- relative viability ([15]; first compound 0.8 µM): 0.816
- relative viability ([15]; first compound 2.53 µM): 0.874
- relative viability ([16]; first compound 0.08 µM): 1.01
- relative viability ([16]; first compound 0.253 µM): 0.945
- relative viability ([16]; first compound 0.8 µM): 0.736
- relative viability ([16]; first compound 2.53 µM): 0.545
- relative viability ([17]; first compound 0.08 µM): 0.812
- relative viability ([17]; first compound 0.253 µM): 0.566
- relative viability ([17]; first compound 0.8 µM): 0.722
- relative viability ([17]; first compound 2.53 µM): 0.765
- relative viability ([18]; first compound 0.08 µM): 0.875
- relative viability ([18]; first compound 0.253 µM): 0.719
- relative viability ([18]; first compound 0.8 µM): 0.759
- relative viability ([18]; first compound 2.53 µM): 0.432
- relative viability ([19]; first compound 0.08 µM): 0.97
- relative viability ([19]; first compound 0.253 µM): 0.818
- relative viability ([19]; first compound 0.8 µM): 0.834
- relative viability ([19]; first compound 2.53 µM): 0.749
- relative viability ([20]; first compound 0.08 µM): 0.936
- relative viability ([20]; first compound 0.253 µM): 0.903
- relative viability ([20]; first compound 0.8 µM): 0.966
- relative viability ([20]; first compound 2.53 µM): 0.92
- relative viability ([21]; first compound 0.08 µM): 0.948
- relative viability ([21]; first compound 0.253 µM): 0.85
- relative viability ([21]; first compound 0.8 µM): 0.757
- relative viability ([21]; first compound 2.53 µM): 0.646
